Consider five compounds from patent publication US5679712A, “Substituted benzoylguanidines, process for their preparation, their use as a pharmaceutical or diagnostic, and pharmaceutical containing them” (priority 1995, dated 1997).

Counter-ions that a name gives are not always drawn.

The target of experiment [1] is T1, Na^+ /H^+ exchanger of rabbit erythrocytes (Oryctolagus cuniculus, UniProt P23791).
T1 construct: endogenous in cells; host or cells: erythrocytes (whole blood samples) of New Zealand White rabbits (Ivanovas) fed 2% cholesterol
T1 sequence (P23791 whole entry): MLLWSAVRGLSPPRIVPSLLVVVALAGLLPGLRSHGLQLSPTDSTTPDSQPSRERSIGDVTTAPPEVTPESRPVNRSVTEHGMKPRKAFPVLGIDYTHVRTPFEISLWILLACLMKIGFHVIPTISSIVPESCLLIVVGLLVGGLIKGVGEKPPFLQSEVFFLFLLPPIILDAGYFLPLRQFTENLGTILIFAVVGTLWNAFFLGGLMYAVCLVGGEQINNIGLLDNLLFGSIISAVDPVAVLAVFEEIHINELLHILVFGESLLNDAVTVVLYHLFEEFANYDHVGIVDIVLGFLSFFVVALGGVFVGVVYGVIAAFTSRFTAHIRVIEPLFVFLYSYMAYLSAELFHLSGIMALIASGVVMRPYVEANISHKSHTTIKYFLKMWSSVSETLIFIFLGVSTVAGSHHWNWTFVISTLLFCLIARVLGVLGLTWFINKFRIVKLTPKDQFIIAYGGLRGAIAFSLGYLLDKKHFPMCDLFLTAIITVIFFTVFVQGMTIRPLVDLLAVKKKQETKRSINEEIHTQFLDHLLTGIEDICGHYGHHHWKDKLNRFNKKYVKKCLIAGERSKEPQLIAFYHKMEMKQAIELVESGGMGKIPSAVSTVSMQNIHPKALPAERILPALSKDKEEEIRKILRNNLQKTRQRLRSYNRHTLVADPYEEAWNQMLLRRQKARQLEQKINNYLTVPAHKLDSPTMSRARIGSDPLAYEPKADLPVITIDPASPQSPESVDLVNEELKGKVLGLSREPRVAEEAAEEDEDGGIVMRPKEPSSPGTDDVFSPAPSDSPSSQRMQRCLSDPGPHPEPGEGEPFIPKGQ
Nature of the experiment: Inhibition of the Na^+/H^+ exchanger of rabbit erythrocytes (amiloride-sensitive sodium influx, flame photometry). It counts as cell-based, rabbit (New Zealand White). The settings on record: cholesterol-fed rabbits, hyperosmolar salt/sucrose medium, pH 7.4, 37° C. An excerpt:
Inhibition of the Na^+ /H^+ exchanger of rabbit erythrocytes
New Zealand White rabbits (Ivanovas) were given a standard diet containing 2% cholesterol for six weeks in order to activate Na^+ /H^+ exchange and thus to be able to determine, by flame photometry, the influx of Na^+ into the erythrocytes by way of Na^+ /H^+ exchange. The blood was removed from the aural arteries and rendered incoagulable with 25 IU of potassium heparin. A portion of each sample was used to determine the hematocrit in duplicate by centrifugation. Aliquots of 100 μl in each case were used for measuring the initial content of Na^+ in the erythrocytes.
In order to determine the amiloride-sensitive sodium influx, 100 μl of each blood sample were in each case incubated in 5 ml of a hyperosmolar salt/sucrose medium (mmol/l: 140 NaCl, 3 KCl, 150 sucrose, 0.1 ouabain, 20 tris-hydroxymethylaminomethane) at pH 7.4 and 37° C. After that, the erythrocytes were washed three times with ice-cold MgCl2 /ouabain solution (mmol/l: 112 MgCl2, 0.1 ouabain), and hemolyzed in 2.0 ml of distilled water. The intracellular content of sodium was determined by flame photometry.
The net influx of Na^+ was calculated from the difference between the initial sodium values and the sodium content of the erythrocytes following incubation. The amiloride-inhibitable sodium influx was obtained from the difference in the sodium content of the erythrocytes following incubation with and without 3×10^-4 mol/l amiloride. The same procedure was used for the compounds according to the invention.

Experiment [2] concerns rats' hearts. The settings on record: isolated rat hearts; cited from earlier work.

For orientation: IC50 means the concentration at which inhibition is half-maximal. Consider `CC(=O)c1cc(C(=O)N=C(N)N)ccc1O` [Example 1, 3-Acetyl-4-hydroxybenzoylguanidine], for which the IC50 in experiment [1] came to 2000 nM.

As for `COc1ccc(C(=O)N=C(N)N)cc1C(C)=O` [Example 2, 3-Acetyl-4-methoxybenzoylguanidine hydrochloride], in experiment [1], the IC50 was determined as 1000 nM.

Turning to `CC(=O)c1cc(C(=O)N=C(N)N)ccc1OC(C)C` [Example 3, 3-Acetyl-4-isopropoxybenzoylguanidine hydrochloride], the IC50 in experiment [1] was 1100 nM.

Regarding `CC(=O)c1cc(C(=O)N=C(N)N)ccc1OCc1ccccc1` [Example 4, 3-Acetyl-4-benzyloxybenzoylguanidine hydrochloride], in experiment [1], the IC50 came to 1200 nM.

For `CCN(c1nc(N)c(C(=O)NC(=N)N)nc1Cl)C(C)C` [ethylisopropylamiloride], in experiment [2], the “potency relative to amiloride, ventricular fibrillation model” value is “even more potent than amiloride itself”.
